In test [1] the target is T1, AR (h) (Homo sapiens, UniProt P10275, T878A).
T1 construct: human endog; endogenous in cells; host or cells: LNCaP cells
T1 sequence (P10275 1-920 T878A): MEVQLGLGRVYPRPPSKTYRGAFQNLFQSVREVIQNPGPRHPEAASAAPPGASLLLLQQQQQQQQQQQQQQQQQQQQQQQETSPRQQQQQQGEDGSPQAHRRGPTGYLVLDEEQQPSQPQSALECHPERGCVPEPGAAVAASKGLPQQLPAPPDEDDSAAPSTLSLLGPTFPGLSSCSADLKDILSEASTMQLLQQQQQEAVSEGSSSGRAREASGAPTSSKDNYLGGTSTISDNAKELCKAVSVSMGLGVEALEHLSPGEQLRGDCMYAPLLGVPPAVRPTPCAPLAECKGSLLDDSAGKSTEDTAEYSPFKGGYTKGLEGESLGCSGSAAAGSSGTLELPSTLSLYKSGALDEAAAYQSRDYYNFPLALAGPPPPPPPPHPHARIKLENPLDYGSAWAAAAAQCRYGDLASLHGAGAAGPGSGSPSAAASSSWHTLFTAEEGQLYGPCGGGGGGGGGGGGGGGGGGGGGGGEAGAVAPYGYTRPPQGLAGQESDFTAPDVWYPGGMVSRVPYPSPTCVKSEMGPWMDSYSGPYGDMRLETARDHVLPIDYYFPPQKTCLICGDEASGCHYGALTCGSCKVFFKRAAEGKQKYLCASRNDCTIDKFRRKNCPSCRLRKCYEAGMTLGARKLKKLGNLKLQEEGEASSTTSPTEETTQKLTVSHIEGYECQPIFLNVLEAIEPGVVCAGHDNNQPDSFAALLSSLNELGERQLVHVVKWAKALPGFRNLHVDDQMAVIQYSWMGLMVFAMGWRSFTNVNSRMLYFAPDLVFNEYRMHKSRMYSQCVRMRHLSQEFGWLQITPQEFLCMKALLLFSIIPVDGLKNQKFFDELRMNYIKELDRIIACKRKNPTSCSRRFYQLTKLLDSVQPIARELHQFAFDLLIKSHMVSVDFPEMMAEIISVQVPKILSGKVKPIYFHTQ
Nature of the test: Radioligand binding AR (h) (agonist radioligand), [^3H]methyltrienolone, LNCaP cells.

For test [2], the target named is T2, 5-HT2A (h) (Homo sapiens, UniProt P28223).
T2 construct: host or cells: HEK-293 cells
As to the kind of experiment: Radioligand binding 5-HT2A (h) (agonist radioligand), [^125I](±)DOI, HEK-293 cells.

The target of test [3] is T3, 5-HT2C (h) (Homo sapiens, UniProt P28335).
T3 construct: host or cells: HEK-293 cells
T3 sequence (P28335 33-458): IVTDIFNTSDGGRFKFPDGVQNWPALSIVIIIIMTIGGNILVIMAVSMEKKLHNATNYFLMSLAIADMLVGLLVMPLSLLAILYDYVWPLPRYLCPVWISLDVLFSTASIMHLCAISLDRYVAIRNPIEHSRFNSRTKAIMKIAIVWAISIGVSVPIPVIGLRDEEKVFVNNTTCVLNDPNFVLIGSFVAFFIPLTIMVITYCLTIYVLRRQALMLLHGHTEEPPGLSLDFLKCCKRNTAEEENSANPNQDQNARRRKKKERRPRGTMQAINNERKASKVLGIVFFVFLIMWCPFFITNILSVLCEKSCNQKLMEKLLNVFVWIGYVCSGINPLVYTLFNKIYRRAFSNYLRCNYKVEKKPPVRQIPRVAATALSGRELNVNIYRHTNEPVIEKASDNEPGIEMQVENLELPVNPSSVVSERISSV
Nature of the test: Radioligand binding 5-HT2C (h) (agonist radioligand), [^125I](±)DOI, HEK-293 cells.

Test [4] has as its target T4, 5-HT2B (h) (Homo sapiens, UniProt P41595).
T4 construct: host or cells: CHO cells
Nature of the test: Radioligand binding 5-HT2B (h) (agonist radioligand), [^125I](±)DOI, CHO cells.

For test [5], the target named is T5, 5-HT2C (Homo sapiens, UniProt P28335).
T5 construct: host or cells: HEK293
As to the kind of experiment: cell-based. The conditions noted are these: IP-1 accumulation.

Test [6] has as its system Balb/c mice sensitized to OVA. Nature of the test: Airway hyperresponsiveness in OVA-induced murine allergic asthma, whole-body plethysmography with methacholine challenge. In kind it is in vivo, mouse. The conditions noted are these: 0.5 mg/kg intraperitoneal + OVA, measured 48 hours after final OVA exposure. On the procedure: Methods: Experiments were conducted in accordance with the methods of Flanagan et al., ACS Pharmacol Transl Sci. 2020 Aug. 13; 4(2):488-502 with modifications. Briefly, Balb/c mice were sensitized to OVA via IP injection. Mice were then exposed repeatedly to aerosolized OVA to induce acute allergic airway inflammation. Airway responsiveness was assessed using non-invasive whole-body plethysmography (WBP) and methacholine challenge. Lung tissue was analyzed to quantify inflammation and mucus production.
Mice were separated into three experimental groups: 1) Naive mice were not exposed to OVA sensitization and challenge, 2) OVA mice were sensitized and challenged with the allergen OVA to induce allergic airway inflammation and hyperresponsiveness, and 3) 0.5 mg/kg exemplary compound+OVA. The exemplary compound was administered to mice via intraperitoneal injection. Respiratory parameters were measured 48 hours after the final OVA exposure. Airway responsiveness to methacholine was measured using noninvasive whole-body plethysmography (WBP) in unrestrained mice.
Baseline PenH values were recorded for each experimental group, followed by exposure to aerosolized saline or increasing concentrations of methacholine, to assess the sensitivity and reactivity of airways due to its bronchoconstricting activity. PenH values were recorded, and data were analyzed using software. […]

We go through four compounds from US12692221B2 (priority 2024, dated 2026).

T2 sequence (P28223 whole entry, looked up): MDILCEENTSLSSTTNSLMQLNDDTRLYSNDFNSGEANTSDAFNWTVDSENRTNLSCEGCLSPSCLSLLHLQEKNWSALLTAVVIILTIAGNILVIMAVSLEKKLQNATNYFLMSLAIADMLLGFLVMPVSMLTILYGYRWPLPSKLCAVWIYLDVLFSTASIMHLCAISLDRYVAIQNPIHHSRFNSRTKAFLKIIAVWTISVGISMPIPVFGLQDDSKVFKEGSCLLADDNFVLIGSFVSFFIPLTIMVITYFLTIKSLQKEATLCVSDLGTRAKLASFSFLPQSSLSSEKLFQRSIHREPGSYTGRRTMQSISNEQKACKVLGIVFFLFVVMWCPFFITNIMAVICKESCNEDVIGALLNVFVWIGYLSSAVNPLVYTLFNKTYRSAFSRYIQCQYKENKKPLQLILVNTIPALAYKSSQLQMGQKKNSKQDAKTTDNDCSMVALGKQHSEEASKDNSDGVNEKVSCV
T4 sequence (P41595 whole entry): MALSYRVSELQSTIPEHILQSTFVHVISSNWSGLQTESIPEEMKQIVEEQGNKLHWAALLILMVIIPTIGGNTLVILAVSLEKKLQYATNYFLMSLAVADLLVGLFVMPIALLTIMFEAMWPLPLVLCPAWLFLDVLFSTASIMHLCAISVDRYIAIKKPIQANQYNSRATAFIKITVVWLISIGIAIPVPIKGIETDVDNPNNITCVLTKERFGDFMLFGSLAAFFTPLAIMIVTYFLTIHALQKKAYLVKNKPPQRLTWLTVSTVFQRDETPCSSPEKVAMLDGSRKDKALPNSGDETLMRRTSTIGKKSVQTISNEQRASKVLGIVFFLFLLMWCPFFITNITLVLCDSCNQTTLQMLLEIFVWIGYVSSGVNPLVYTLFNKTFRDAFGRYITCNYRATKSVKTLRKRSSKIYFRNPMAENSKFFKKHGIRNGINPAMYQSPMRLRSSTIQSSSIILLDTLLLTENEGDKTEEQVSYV

On to `COCc1cc(CCN)c(O)cc1CC(C)C` [2CiBu-2OH-5MM, 2-(2-aminoethyl)-5-isobutyl-4-(methoxymethyl)phenol], for which, in test [1], the “Mean Percent Inhibition of Control Specific Binding” value (“Mean Percent Inhibition” for short) is listed as −9.9%.

What is called EC50 is the concentration that produces a half-maximal response. Turning to `COCCc1cc(CCN)c(OC)cc1Br` [Compound 2CB-5ME, reference compound], the “Mean Percent Inhibition” value in test [2] (5-HT2A(h) (agonist radioligand)) is 98.8%; in test [1], −7.7%; in test [3] (5-HT2C(h) (agonist radioligand)), 99.3%; in test [4] (5-HT2B(h) (agonist radioligand)), 104.1%. A half-maximal response in test [5] (EC50) required 265 nM.

As to `COCc1cc(CCN)c(OC)cc1Br` [Compound 2CB-5MM, 2-(4-bromo-2-methoxy-5-(methoxymethyl)phenyl)ethan-1-amine], in test [1], the “Mean Percent Inhibition” value is recorded as −9.2%. In test [5], this compound returned an EC50 of 225 nM.

A word on the IC50: it is the concentration that inhibits the measured activity by half. High values mean lower potency, low ones higher potency. The term Ki denotes the equilibrium dissociation constant of an inhibitor or competing ligand from its target. A low value points to a stronger hold on the target. Consider `COCc1cc(CCN)c(OC)cc1CC(C)C` [Compound 2CiBu-5MM, 2-[4-isobutyl-2-methoxy-5-(methoxymethyl)phenyl]ethanamine], for which the values for the IC50 in test [2], in test [3] and in test [4] were 57 nM, 14 nM and 270 nM, respectively. For the same compound, the Ki was 43 nM in test [2], 12 nM in test [3] and 130 nM in test [4]. Besides, the nH was 0.6 in test [2] (5-HT2A, Hill coefficient); 0.9 in test [3] (5-HT2C, Hill coefficient); 0.7 in test [4] (5-HT2B, Hill coefficient). The “Mean Percent Inhibition” value in test [1] is listed as 3.0%. Besides, the “PenH response to methacholine (airway hyperresponsiveness)” value in test [6] is reported as “reduced PenH values to levels representative of normal airway function”.
